PMC9875641, “Ophthalmic Solution of Smart Supramolecular Peptides to Capture Semaphorin 4D against Diabetic Retinopathy” (Advanced Science, 2022)

Assays:
STZ model = test: STZ-induced retinopathy model, retinal vascular leakage; format: in vivo, mouse; conditions: for reduction of retinal vascular leakage by eye drops plus anti-VEGF injection compared with anti-VEGF injection alone: Evans blue, anti-VEGF antibody 2 µg intravitreal at third month, eye drops twice a day for 30 d, on average; for reduction of retinal vascular leakage by eye drops plus anti-VEGF injection compared with anti-VEGF injection alone / vascular leakage (Evans blue assay): n = 9; for diabetes-induced retinal acellular capillary formation: eye drops 10 µL per eye twice daily for 30 d, PDGFRb/collagen IV staining, n = 6
Method: follows: 5’-[…]-3’, 5’-
STZ. Eight-week-old male C57BL/6 mice were starved for 4 hours before each […]
injection of streptozotocin (STZ, Sigma, St. Louis, MO), and then injected with STZ […]
(50 mg/kg) for 5 consecutive days. Mice in the vehicle control group were […]
intraperitoneally injected with citrate buffer for 5 consecutive days. A blood glucose […]
meter (ONETOUCH, Johnson & Johnson, USA) was used to evaluate the fasting […]
blood glucose of the mice 7 days after the last injection of STZ. Mice with blood […]
glucose levels greater than or equal to 16.7 mM were considered successful in STZ […]
modeling. […]
Evans blue assay. Mice were intraperitoneally injected with Evans Blue dye (200 mg/kg) and circulated for 5 hours. The mice were perfused with PBS, and the eyes were fixed with 4% PFA at 4 degrees Celsius for 12 hours, and the retina was separated. Some retinas are tested for Evans Blue fluorescence using a fluorescence microscope. Adding formamide (70 μL/piece) to the rest of the retina and incubate overnight at 70°C to extract the […]. Detect the absorbance of formamide at 620/740 nm (background) with a microplate reader. Calculate the content of Evans blue in the retina from the standard curve, and then standardize it based on the weight of the retina and the content of Evans blue in the blood. […]
Statistical analysis. Statistical analysis was conducted using Graphpad Prism 8.0 software. All data were expressed by mean ± SD. Unpaired two-tailed Student’s t-test (two groups) or one-way ANOVA (more than 2 groups) was used to analyze the statistical significances of the data. Person’s correlation analysis was conducted to […]

retina = test: Biosafety in the retina after intraocular injection; format: in vivo, mouse; conditions: for pathological changes in the retina (HE staining): 30 d after intraocular injection; for abnormalities in retinal pigment epithelium, rod and cone layer, outer nuclear layer and retinal ganglion cells (electron microscopy): mouse, in vivo
Excerpt: After 30 d of SSP‐1 and SSP‐2 intraocular injection, the biosafety of SSP‐1 and SSP‐2 was systematically studied by H&E staining and electron microscopy.

[1] = tested on: mouse brain microvascular endothelial cells (MBMEC); test: CCK-8 cytotoxicity; format: cell-based; conditions: CCK-8, 24 h incubation, concentrations up to 80 × 10^−6 M
Method: In addition, KLVFF sequence, a sheet structure with strong hydrogen‐bonding was introduced into SSPs, we could distinctly observe the secondary structure of SSPs by circular dichroism (CD) spectroscopy. […] The percentage of β‐sheet after incubation with sSema4D in SSP‐1 and SSP‐2 were 85.6% and 42.3%, respectively, indicative of a highly organized packing of NFs in SSP‐1. […] The high percentage of β‐sheet structure in NFs stabilized the formation of nanostructure networks, due to its strong hydrogen‐bonding KLVFF sequence. Moreover, we carried out the cytotoxicity of SSP‐1 and SSP‐2 by using a standard CCK‐8 (Figure 3D). […] Finally, we investigated the recognition of sSema4D and SSP‐1 and SSP‐2 by confocal laser scanning microscope (CLSM). […]
pericytes were cultured in Pericyte Medium (ScienCell, USA). bEnd.3 cells were purchased from ATCC and grown in DMEM with 10% fetal bovine serum.
Preparation method of nanoparticles. The nanomaterials FG-12 and FH-12 were added to a 1:1 mixture of propylene glycol and ethanol solution to form a 2 mM mother liquor. The mother solution was diluted in normal saline at 1:100 dilution to form a 20 μM nanoparticle solution. […]
solution was added. After 2 h incubation with CCK8 solution at 37℃ in a 5% CO2 atmosphere, the […] was evaluated by a fluorescence microplate reader (PerkinElmer, Waltham, MA, USA). real-time PCR. […]

[2] = eye drops 10 µL per eye twice daily for 30 d after third month since diabetes induction, equal to intraocular anti-Sema4D antibody
[3] = intravitreal injection at third month since diabetes induction, retinas at fourth month, similar to anti-Sema4D antibody

Substance	reduction of retinal vascular leakage by eye drops plus anti-VEGF injection compared with anti-VEGF injection alone (STZ model) [%]	diabetes-induced retinal acellular capillary formation (STZ model)	vascular leakage (Evans blue assay) (STZ model; [2])	vascular leakage (Evans blue assay) (STZ model; [3])	pathological changes in the retina (HE staining) (retina)	abnormalities in retinal pigment epithelium, rod and cone layer, outer nuclear layer and retinal ganglion cells (electron microscopy) (retina)	viability of MBMEC [1] [%]
C16‐FFVLK‐KNKAAKG [SSP-2, smart supramolecular peptide, C16‐FFVLK‐KNKAAKG, self-assembling, captures sSema4D]	15.49	ameliorated	significantly decreased	significantly decreased	no significant pathological changes	no significant abnormalities	~90
C16‐FFVLK‐KQKRPRH [SSP-1, smart supramolecular peptide, C16‐FFVLK‐KQKRPRH, self-assembling, captures sSema4D]	20.21	ameliorated	significantly decreased	significantly decreased	no significant pathological changes	no significant abnormalities	~90
